# Experimental data as given in patent publication US4421747A, “Inflammation-preventing pharmaceutical composition of oral administration” (A. Nattermann & Cie. GmbH, priority 1981, dated 1983).
# Like-named read-outs stand apart in the source and are kept apart here.
# How the values were obtained:
# bleeding stomach ulcer = experiment: Ulcer development (bleeding stomach ulcer provoked by oral application, mean ulcer factor); format: in vivo, Wistar-rats; details: for ED50: Rattus norvegicus, read-out: oral ED50
# Method: The development of the ulcer was determined in accordance with
# L. Mariani, "Eur. J. Toxicol.
# R. Menguy & L. Desbaillets, "Proc. Soc. exp.
# Ten male and ten female Wistar-rats (120 to 150 grams, in weight) which have not fed for 16 hours, were used for these tests. The bleeding stomach ulcer was provoked by oral application of the active substance. After 3.5 hours, the animals are killed and the stomach extracted, opened along the wide curvature and stretched onto a "Styropor" plate. The mean ulcer factor of the test and of the control group are determined. The variation is weighted in percentages as prevention of the ulcer formation.
# rat paw oedema = experiment: rat-paw-oedema test (carragenin); format: in vivo; details: for ED50: 3 h, read-out: oral ED50; for Prevention of Oedema: Table VII, 12 animals; for Effectiveness applied to Rat Paw Oedema: Table VIII, Dosage 10.0 mg/kg KGW, 12 Animals, prevention of oedema in percentages
# Method: On one hind paw of each rat (weight 200 to 250 grams) an oedema was caused to develop by the "subplantane" application of carragenin (0.5% in a 0.9% NaCl solution) in the amount of 0.1 ml solution per paw.
# After the application of the test substance, its volume not to exceed 10 ml per kg of body weight, the volume of the paw is determined in an overflow ("Ueberlauf"). After three hours the final value is ascertained. The test is carried out for every dosage by using 10 test and 10 control animals of one sex and repeated with the identical number of animals of the other sex. For the purpose of evaluation, the prevention of the oedema is expressed in percentages relative to the control group.
# [1] = reference substances, rat-paw-oedema test, oral
# [2] = Table V, oral, Dosage One cc per mg/kg of Body Weight (KGW), by proportion Indometacine:Phospholipon 100
smiles,measurement,setting,value
CN1C2CCC1CC(OC(=O)C(CO)c1ccccc1)C2 (stereo not shown) [atropinesulphate],ED50,bleeding stomach ulcer; po,17.1 mg/kg
"CC(=O)Oc1ccccc1C(=O)O [Acetyl-Salicylic Acid, acetyl-salicylic acid]",Ulcer Index,"bleeding stomach ulcer; Table I, oral, 200 mg/kg KGW, mixture molar ratio Acetyl-Salicylic Acid:Phospholipon 100 = 2:1, 3.5 h, n=10",1.20 ± 0.20
same,Incidence of Ulcers,"bleeding stomach ulcer; Table I, oral, 200 mg/kg KGW, without resp. with p^+ (Phospholipon 100, 2:1)",70%
same,Ulcer Index,"bleeding stomach ulcer; Table I, oral, 400 mg/kg KGW, mixture molar ratio Acetyl-Salicylic Acid:Phospholipon 100 = 2:1, 3.5 h, n=10",1.10 ± 0.50
same,Incidence of Ulcers,"bleeding stomach ulcer; Table I, oral, 400 mg/kg KGW, without resp. with p^+ (Phospholipon 100, 2:1)",50%
same,Ulcer Index,"bleeding stomach ulcer; Table I, oral, 800 mg/kg KGW, mixture molar ratio Acetyl-Salicylic Acid:Phospholipon 100 = 2:1, 3.5 h, n=10",1.20 ± 0.20
same,Incidence of Ulcers,"bleeding stomach ulcer; Table I, oral, 800 mg/kg KGW, without resp. with p^+ (Phospholipon 100, 2:1)",80%
CC(=O)OCC(=O)[C@@]1(O)CC[C@H]2[C@@H]3CCC4=CC(=O)CC[C@]4(C)[C@H]3[C@@H](O)C[C@@]21C [Hydrocortisoneacetate],ED50,rat paw oedema; [1],19 mg/kg
COc1ccc2c(c1)c(CC(=O)O)c(C)n2C(=O)c1ccc(Cl)cc1 [Indometacine],Ulcer Index,"bleeding stomach ulcer; Table III, oral, 5 mg/kg KGW, mixture molar ratio Indometacine:Phospholipon 100 = 2:1, 3.5 h, n=10",1.20 ± 0.30
same,Incidence of Ulcers,"bleeding stomach ulcer; Table III, oral, 5 mg/kg KGW, without resp. with p^+ (Phospholipon 100, 2:1)",70%
same,Ulcer Index,"bleeding stomach ulcer; Table III, oral, 10 mg/kg KGW, mixture molar ratio Indometacine:Phospholipon 100 = 2:1, 3.5 h, n=10",1.90 ± 0.90
same,Incidence of Ulcers,"bleeding stomach ulcer; Table III, oral, 10 mg/kg KGW, without resp. with p^+ (Phospholipon 100, 2:1)",90%
same,Ulcer Index,"bleeding stomach ulcer; Table III, oral, 20 mg/kg KGW, mixture molar ratio Indometacine:Phospholipon 100 = 2:1, 3.5 h, n=10",1.50 ± 0.40
same,Incidence of Ulcers,"bleeding stomach ulcer; Table III, oral, 20 mg/kg KGW, without resp. with p^+ (Phospholipon 100, 2:1)",100%
same,Incidence of Ulcers,"bleeding stomach ulcer; Table IV, oral, 5 mg/kg KGW, without resp. with p^+ (Phospholipon 45, 1:2)",80%
same,Incidence of Ulcers,"bleeding stomach ulcer; Table IV, oral, 10 mg/kg KGW, one value printed for without and with p^+ (Phospholipon 45, 1:2)",90%
same,Incidence of Ulcers,"bleeding stomach ulcer; Table IV, oral, 20 mg/kg KGW, one value printed for without and with p^+ (Phospholipon 45, 1:2)",100%
same,Incidence of Ulcers,"bleeding stomach ulcer; Table IV, oral, 30 mg/kg KGW, without resp. with p^+ (Phospholipon 45, 1:2)",80%
same,Ulcer Index,"bleeding stomach ulcer; Table IV, rat, oral, 5 mg/kg KGW, mixture molar ratio Indometacine:Phospholipon 45 = 1:2, 3.5 h, n=10",2.10 ± 0.36
same,Ulcer Index,"bleeding stomach ulcer; Table IV, rat, oral, 10 mg/kg KGW, mixture molar ratio Indometacine:Phospholipon 45 = 1:2, 3.5 h, n=10",2.20 ± 0.42
same,Ulcer Index,"bleeding stomach ulcer; Table IV, rat, oral, 20 mg/kg KGW, mixture molar ratio Indometacine:Phospholipon 45 = 1:2, 3.5 h, n=10",2.30 ± 0.47
same,Ulcer Index,"bleeding stomach ulcer; Table IV, rat, oral, 30 mg/kg KGW, mixture molar ratio Indometacine:Phospholipon 45 = 1:2, 3.5 h, n=10",2.70 ± 0.30
same,Ulcer Index,bleeding stomach ulcer; [2],2.60 ± 0.22
same,Variation of Mean Ulcer Factor: Indometacine With p^+ Versus Without p^+,bleeding stomach ulcer; [2],0%
same,ED50,"rat paw oedema; Rattus norvegicus, po",7.24 mg/kg
same,Prevention of Oedema,"rat paw oedema; Indometacine 3.16 mg/kg p.o., mixture with Phospholipon 100 7.1 mg/kg p.o.",-47.3%
same,Prevention of Oedema,"rat paw oedema; Indometacine 10 mg/kg p.o., mixture with Phospholipon 100 22.4 mg/kg p.o.",-37.8%
same,Effectiveness applied to Rat Paw Oedema,rat paw oedema; 3 hours elapsed after application,32
same,Effectiveness applied to Rat Paw Oedema,rat paw oedema; 4 hours elapsed after application,40
same,Effectiveness applied to Rat Paw Oedema,rat paw oedema; 5 hours elapsed after application,28
same,Effectiveness applied to Rat Paw Oedema,rat paw oedema; 6 hours elapsed after application,27
"CCCCC1C(=O)N(c2ccccc2)N(c2ccccc2)C1=O [Phenylbutazone, 4-butyl-1,2-diphenylpyrazolidine-3,5-dion]",Ulcer Index,"bleeding stomach ulcer; Table II, oral, 25 mg/kg KGW, mixture molar ratio Phenylbutazone:Phospholipon 100 = 2:1, 3.5 h, n=10",0.70 ± 0.05
same,Incidence of Ulcers,"bleeding stomach ulcer; Table II, oral, 25 mg/kg KGW, without resp. with p^+ (Phospholipon 100, 2:1)",70%
same,Ulcer Index,"bleeding stomach ulcer; Table II, oral, 50 mg/kg KGW, mixture molar ratio Phenylbutazone:Phospholipon 100 = 2:1, 3.5 h, n=10",1.60 ± 0.42
same,Incidence of Ulcers,"bleeding stomach ulcer; Table II, oral, 50 mg/kg KGW, without resp. with p^+ (Phospholipon 100, 2:1)",60%
same,Ulcer Index,"bleeding stomach ulcer; Table II, oral, 100 mg/kg KGW, mixture molar ratio Phenylbutazone:Phospholipon 100 = 2:1, 3.5 h, n=10",1.80 ± 0.84
same,Incidence of Ulcers,"bleeding stomach ulcer; Table II, oral, 100 mg/kg KGW, without resp. with p^+ (Phospholipon 100, 2:1)",100%
same,Ulcer Index,"bleeding stomach ulcer; Table II, oral, 200 mg/kg KGW, mixture molar ratio Phenylbutazone:Phospholipon 100 = 2:1, 3.5 h, n=10",1.90 ± 0.66
same,Incidence of Ulcers,"bleeding stomach ulcer; Table II, oral, 200 mg/kg KGW, one value printed for without and with p^+ (Phospholipon 100, 2:1)",80%
same,ED50,rat paw oedema; [1],100 mg/kg
"CC(C)Cc1ccc(C(C)C(=O)O)cc1 (stereo not shown) [Ibuprofen, 2-(4-isobutylphenyl)-propinic acid]",Incidence of Ulcers,"bleeding stomach ulcer; Table VI, oral, 5 mg/kg KGW, one value printed for without and with p^+ (Phospholipon 100, 1:1)",20%
same,Incidence of Ulcers,"bleeding stomach ulcer; Table VI, oral, 10 mg/kg KGW, without resp. with p^+ (Phospholipon 100, 1:1)",20%
same,Incidence of Ulcers,"bleeding stomach ulcer; Table VI, oral, 20 mg/kg KGW, without resp. with p^+ (Phospholipon 100, 1:1)",40%
same,Incidence of Ulcers,"bleeding stomach ulcer; Table VI, oral, 30 mg/kg KGW, without resp. with p^+ (Phospholipon 100, 1:1)",50%
same,Ulcer Index,"bleeding stomach ulcer; Table VI, rat, oral, 5 mg/kg KGW, mixture molar ratio Ibuprofen:Phospholipon 100 = 1:1, 3.5 h, n=10",0.20 ± 0.13
same,Ulcer Index,"bleeding stomach ulcer; Table VI, rat, oral, 10 mg/kg KGW, mixture molar ratio Ibuprofen:Phospholipon 100 = 1:1, 3.5 h, n=10",0.30 ± 0.15
same,Ulcer Index,"bleeding stomach ulcer; Table VI, rat, oral, 20 mg/kg KGW, mixture molar ratio Ibuprofen:Phospholipon 100 = 1:1, 3.5 h, n=10",0.50 ± 0.22
same,Ulcer Index,"bleeding stomach ulcer; Table VI, rat, oral, 30 mg/kg KGW, mixture molar ratio Ibuprofen:Phospholipon 100 = 1:1, 3.5 h, n=10",0.71 ± 0.30
CN(C)CCCN1c2ccccc2Sc2ccc(Cl)cc21 [chloropromazine],ED50,"bleeding stomach ulcer; reference substances, ulcer test, oral",105 mg/kg
